Reference: patent publication US5328902A, “7-(substituted)-9-[(substituted glycyl)amido]-6-demethyl-6-deoxytetracyclines” (American Cyanamid Co., priority 1992, dated 1994)
Like-named read-outs stand apart in the source and are kept apart here.

Assays:
E. coli UBMS 88-1 Tet B = experiment: microbe, parasite or virus in culture; format: cell-based
[1] = tested on: E. coli MC 4100 Tet sens.; experiment: MIC, agar dilution; format: cell-based
E. coli UBMS 89-1 Tet M = experiment: microbe, parasite or virus in culture; format: cell-based
E. coli BAJ9003 IMP MUT = experiment: microbe, parasite or virus in culture; format: cell-based
E. coli #311 (MP) = experiment: MIC, agar dilution; format: cell-based
E. coli ATCC 25922 = experiment: MIC, agar dilution; format: cell-based
E. coli J3272 Tet D = experiment: microbe, parasite or virus in culture; format: cell-based
S. mariescens FPOR 8733 = experiment: MIC, agar dilution; format: cell-based
[2] = tested on: X. maltophilia NEMC 87210; experiment: MIC, agar dilution; format: cell-based
[3] = tested on: Ps. acruginosa ATCC 27853; experiment: MIC, agar dilution; format: cell-based
S. aureus NEMC 8769 = experiment: MIC, agar dilution; format: cell-based
S. aureus UBMS 88-4 = experiment: MIC, agar dilution; format: cell-based
[4] = tested on: S. aureus UBMS 88-5 Tet M; experiment: microbe, parasite or virus in culture; format: cell-based
[5] = tested on: S. aureus UBMS 88-7 Tet K; experiment: microbe, parasite or virus in culture; format: cell-based
[6] = tested on: S. aureus UBMS 90-1 Tet M; experiment: microbe, parasite or virus in culture; format: cell-based
S. aureus UBMS 90-3 = experiment: MIC, agar dilution; format: cell-based
[7] = tested on: S. aureus UBMS 90-2 Tet M; experiment: microbe, parasite or virus in culture; format: cell-based
S. aureus IVES 2943 = experiment: MIC, agar dilution; format: cell-based
S. aureus ROSE (MP) = experiment: MIC, agar dilution; format: cell-based
S. aureus SMITH (MP) = experiment: MIC, agar dilution; format: cell-based
S. aureus IVES 1 983 = experiment: MIC, agar dilution; format: cell-based
S. aureus ATCC 29213 = experiment: MIC, agar dilution; format: cell-based
[8] = tested on: S. hemolyticus AVHAH 88-3; experiment: MIC, agar dilution; format: cell-based
Enterococcus 12201 = experiment: MIC, agar dilution; format: cell-based
E. faecalis ATCC 29212 = experiment: MIC, agar dilution; format: cell-based
E. coli J3272 Tet sens. = experiment: MIC, agar dilution; format: cell-based
E. coli PRP1 Tet A = experiment: microbe, parasite or virus in culture; format: cell-based
[9] = tested on: E. coli MC 4100 TNIOC Tet B; experiment: microbe, parasite or virus in culture; format: cell-based
E. coli J3272 Tet C = experiment: microbe, parasite or virus in culture; format: cell-based
[10] = tested on: E. coli UBMS 89-2 Tet sens.; experiment: MIC, agar dilution; format: cell-based
E. coli J2175 = experiment: MIC, agar dilution; format: cell-based
E. coli UBMS 90-4 Tet M = experiment: microbe, parasite or virus in culture; format: cell-based
E. coli UBMS 90-5 = experiment: MIC, agar dilution; format: cell-based
[11] = tested on: Wild Type S30 (wild type ribosomes, E. coli strain MRE600, tetracycline sensitive); experiment: E. coli in vitro protein translation system, wild type S30
[12] = E. coli UBMS 88-1 Tet B, 18 hours at 35° C.
[13] = Escherichia coli, UBMS881TETB, 18 h
[14] = Escherichia coli, 18 h, read-out: MIC
[15] = Escherichia coli, J3272TETC, 18 h
[16] = Escherichia coli, UBMS891TETM, 18 h
[17] = Escherichia coli, BAJ9003IMPMUT, 18 h
[18] = Escherichia coli, UBMS905, 18 h, read-out: MIC
[19] = Escherichia coli, ATCC25922, 18 h
[20] = Escherichia coli, J3272TETD, 18 h
[21] = Staphylococcus aureus, UBMS884, 18 h
[22] = Staphylococcus aureus, UBMS885TETM, 18 h
[23] = Staphylococcus aureus, UBMS901TETM, 18 h
[24] = Staphylococcus aureus, UBMS903, 18 h
[25] = Staphylococcus aureus, UBMS902TETM, 18 h
[26] = Staphylococcus aureus, IVES2943, 18 h
[27] = Staphylococcus aureus, IVES1983, 18 h
[28] = Enterococcus faecalis, ATCC29212, 18 h

CN(C)c1cc(NC(=O)CNCCCCO)c(O)c2c1C[C@H]1C[C@H]3[C@H](N(C)C)C(O)=C(C(N)=O)C(=O)[C@@]3(O)C(O)=C1C2=O [R]
32 µg/mL: MIC (E. coli UBMS 89-1 Tet M; E. coli UBMS 89-1 Tet M) | MIC (E. coli #311 (MP); E. coli #311 (MP)) | MIC (E. coli ATCC 25922; E. coli ATCC 25922) | MIC ([4]; S. aureus UBMS 88-5 Tet M) | MIC ([5]; S. aureus UBMS 88-7 Tet K) | MIC ([6]; S. aureus UBMS 90-1 Tet M) | MIC ([8]; S. hemolyticus AVHAH 88-3)
4 µg/mL: MIC (E. coli BAJ9003 IMP MUT; E. coli BAJ9003 IMP MUT)
> 32 µg/mL: MIC (E. coli UBMS 88-1 Tet B; [12]) | MIC ([3]; Ps. acruginosa ATCC 27853) | MIC (S. aureus IVES 2943; S. aureus IVES 2943) | MIC (S. aureus ROSE (MP); S. aureus ROSE (MP)) | MIC (S. aureus IVES 1 983; S. aureus IVES 1 983)
16 µg/mL: MIC ([7]; S. aureus UBMS 90-2 Tet M) | MIC (S. aureus ATCC 29213; S. aureus ATCC 29213)
8 µg/mL: MIC [1] | MIC (E. coli J3272 Tet D; E. coli J3272 Tet D) | MIC (S. mariescens FPOR 8733) | MIC [2] | MIC (S. aureus NEMC 8769; S. aureus NEMC 8769) | MIC (S. aureus UBMS 88-4; S. aureus UBMS 88-4) | MIC (S. aureus UBMS 90-3; S. aureus UBMS 90-3) | MIC (S. aureus SMITH (MP); S. aureus SMITH (MP)) | MIC (Enterococcus 12201; Enterococcus 12201) | MIC (E. faecalis ATCC 29212; E. faecalis ATCC 29212)

[7S-(7alpha,10aalpha)]-N-[9-(Aminocarbonyl)-4,7-bis(dimethylamino)-5,5a,6,6a,7,10,10a,12-octahydro-1,8,10a,11-tetrahydroxy-10,12-dioxo-2-naphthacenyl]-4-thiomorpholineacetamide dihydrochloride [F]
0.25 µg/mL: MIC (E. faecalis ATCC 29212; E. faecalis ATCC 29212)
32 µg/mL: MIC (E. coli ATCC 25922; E. coli ATCC 25922)
4 µg/mL: MIC ([5]; S. aureus UBMS 88-7 Tet K) | MIC (S. aureus IVES 2943; S. aureus IVES 2943) | MIC (S. aureus IVES 1 983; S. aureus IVES 1 983) | MIC ([8]; S. hemolyticus AVHAH 88-3)
16 µg/mL: MIC (E. coli J3272 Tet D; E. coli J3272 Tet D)
> 32 µg/mL: MIC (E. coli UBMS 88-1 Tet B; [12]) | MIC (E. coli J3272 Tet sens.) | MIC (E. coli PRP1 Tet A; E. coli PRP1 Tet A) | MIC ([9]; E. coli MC 4100 TNIOC Tet B) | MIC (E. coli J3272 Tet C; E. coli J3272 Tet C) | MIC (E. coli UBMS 89-1 Tet M; E. coli UBMS 89-1 Tet M) | MIC ([10]; E. coli UBMS 89-2 Tet sens.) | MIC (E. coli J2175; E. coli J2175) | MIC (E. coli UBMS 90-4 Tet M; E. coli UBMS 90-4 Tet M) | MIC (E. coli UBMS 90-5) | MIC (E. coli #311 (MP); E. coli #311 (MP)) | MIC (S. mariescens FPOR 8733) | MIC ([3]; Ps. acruginosa ATCC 27853)
8 µg/mL: MIC (S. aureus ROSE (MP); S. aureus ROSE (MP))
1 µg/mL: MIC (S. aureus UBMS 88-4; S. aureus UBMS 88-4) | MIC ([6]; S. aureus UBMS 90-1 Tet M) | MIC (S. aureus UBMS 90-3; S. aureus UBMS 90-3) | MIC ([7]; S. aureus UBMS 90-2 Tet M) | MIC (S. aureus ATCC 29213; S. aureus ATCC 29213) | MIC (Enterococcus 12201; Enterococcus 12201)

CN(C)c1ccc(O)c2c1C[C@H]1C[C@H]3[C@H](N(C)C)C(O)=C(C(N)=O)C(=O)[C@@]3(O)C(O)=C1C2=O [O, Minocycline, reference compound]
< 0.015 µg/mL: MIC (S. aureus NEMC 8769; Staphylococcus aureus, NEMC8769, 18 h, S. aureus NEMC 8769, read-out: MIC)
78%: % Inhibition Wild Type S30 ([11]; Conc. 0.06 mg/ml)
0.5 µg/mL: MIC (E. coli J3272 Tet sens.; [14]) | MIC ([10]; Escherichia coli, 18 h) | MIC (E. coli J2175; Escherichia coli, J2175, 18 h) | MIC (E. coli UBMS 90-5; [18]) | MIC (E. coli ATCC 25922; [19]) | MIC (S. aureus ROSE (MP); Staphylococcus aureus, 18 h)
0.25 µg/mL: MIC (E. coli #311 (MP); Escherichia coli, 18 h)
16 µg/mL: MIC (E. coli UBMS 88-1 Tet B; [13])
0.03 µg/mL: MIC (E. coli BAJ9003 IMP MUT; [17]) | MIC (S. aureus UBMS 88-4; [21]) | MIC (S. aureus UBMS 90-3; [24]) | MIC (S. aureus SMITH (MP); Staphylococcus aureus, 18 h, S. aureus SMITH (MP), read-out: MIC) | MIC (S. aureus ATCC 29213; Staphylococcus aureus, ATCC29213, 18 h, S. aureus ATCC 29213, read-out: MIC)
4 µg/mL: MIC [4, 22] | MIC [6, 23]
8 µg/mL: MIC ([9]; Escherichia coli, 18 h) | MIC (E. coli UBMS 89-1 Tet M; [16]) | MIC (E. coli J3272 Tet D; [20]) | MIC ([3]; 18 h)
2 µg/mL: MIC (E. coli J3272 Tet C; [15]) | MIC (S. mariescens FPOR 8733; 18 h, read-out: MIC) | MIC [7, 25] | MIC (S. aureus IVES 2943; [26]) | MIC (S. aureus IVES 1 983; [27])
effectively inhibit protein synthesis: inhibition of protein synthesis occuring on wild type ribosomes ([11]; coupled transcription and translation system)
98%: % Inhibition Wild Type S30 ([11]; Conc. 1.0 mg/ml)
1 µg/mL: MIC (E. faecalis ATCC 29212; [28])

CN(C)[C@@H]1C(=O)C(C(N)=O)=C(O)[C@@]2(O)C(=O)C3=C(O)c4c(O)cccc4[C@@](C)(O)[C@H]3C[C@@H]12 [N, Tetracycline]
0.06 µg/mL: MIC (S. aureus UBMS 88-4; [21]) | MIC (S. aureus UBMS 90-3; [24]) | MIC (S. aureus SMITH (MP); Staphylococcus aureus, 18 h) | MIC (S. aureus ATCC 29213; Staphylococcus aureus, ATCC29213, 18 h)
1 µg/mL: MIC ([10]; Escherichia coli, 18 h) | MIC (E. coli J2175; Escherichia coli, J2175, 18 h) | MIC (E. coli UBMS 90-5; [18]) | MIC (E. coli #311 (MP); Escherichia coli, 18 h)
0.5 µg/mL: MIC (E. coli J3272 Tet sens.; [14]) | MIC (E. coli ATCC 25922; [19]) | MIC ([8]; Streptococcus pyogenes, AVHAH883, 18 h)
> 32 µg/mL: MIC (E. coli UBMS 88-1 Tet B; [13]) | MIC ([9]; Escherichia coli, 18 h) | MIC (E. coli J3272 Tet C; [15]) | MIC (E. coli J3272 Tet D; [20]) | MIC [4, 22] | MIC ([5]; Staphylococcus aureus, UBMS887TETK, 18 h) | MIC (S. aureus IVES 2943; [26]) | MIC (S. aureus ROSE (MP); Staphylococcus aureus, 18 h) | MIC (S. aureus IVES 1 983; [27])
0.03 µg/mL: MIC (S. aureus NEMC 8769; Staphylococcus aureus, NEMC8769, 18 h)
8 µg/mL: MIC (E. coli UBMS 89-1 Tet M; [16]) | MIC ([3]; 18 h) | MIC (E. faecalis ATCC 29212; [28])
0.25 µg/mL: MIC (E. coli BAJ9003 IMP MUT; [17])
32 µg/mL: MIC (E. coli PRP1 Tet A; Escherichia coli, PRP1TETA, 18 h) | MIC (S. mariescens FPOR 8733; 18 h, read-out: MIC) | MIC [6, 23] | MIC [7, 25] | MIC (Enterococcus 12201; Enterococcus, 12201, 18 h)
16 µg/mL: MIC (E. coli UBMS 90-4 Tet M; Escherichia coli, UBMS904TETM, 18 h)
